From US20080125493A1, “Use of agomelatine in obtaining medicaments intended for the treatment of periventricular leukomalacia” (LES LABORATOIRES SERVIER, priority 2006, published 2008)

Tested on: lesions of the white matter of the brain produced by intracerebral injection of ibotenate
Assay: Neuroprotective effects on ibotenate-induced white matter lesions in 5-day-old baby mice
Type: in vivo
Procedure: Immediately after the administration of 10 μg of ibotenate, there are injected by the i.p. route, in a final volume of 5 μl, from 0.005 to 5 mg/kg of agomelatine, 10 mg/kg of fluoxetine used as standard antidepressant control, or the solvent alone. In a second experiment, the i.p. injection following the intracerebral injection of ibotenate is carried out 2 hours, 4 hours or 8 hours later.

SMILES | effect on the lesions of the white matter (10 mg/kg i.p., co-administration immediately after 10 μg ibotenate) | reduction of the lesions of the white matter (5 mg/kg i.p., co-administration immediately after 10 μg ibotenate intracerebral, 5-day-old mice) | effect on the lesions of the white matter (dose dependence) (0.005 to 5 mg/kg i.p., co-administration immediately after 10 μg ibotenate) | course of lesion size over time (co-treated concomitantly or after 8 hours, same lesions for first 24 hours, then over the next 4 days) | neuroprotection with delayed administration (i.p. administration 8 hours after the injection of ibotenate) | neuroprotection with delayed administration (i.p. administration between 0 and 4 hours after the injection of ibotenate)
CNCCC(Oc1ccc(C(F)(F)F)cc1)c1ccccc1 (stereo not drawn) [fluoxetine, reference compound] | No significant effect |  |  |  |  | 
COc1ccc2cccc(CCNC(C)=O)c2c1 [agomelatine, N-[2-(7-methoxy-1-naphthyl)ethyl]acetamide] |  | 59% | dose-dependent reduction of the lesions of the white matter | very major regression | significant neuroprotection is restored | decreases
